The text below walks through data of ChEMBL document CHEMBL6071142, “Isoalantolactone/hydroxamic acid hybrids as potent dual STAT3/HDAC inhibitors and self-assembled nanoparticles for cancer therapy” (Eur J Med Chem, 2024).

Activity calls are given as the source filed them. No cut-off for these calls is given here.

The subject of data set [1] is HeLa. Nature of the data set: Anticancer activity against human HeLa cells assessed as cell viability incubated for 72 hrs using self assembled nanoparticle as source of compound by CCK-8 assay. It counts as functional, cell-based. Background: Tetrazolium assays rely on reduction of a dye to a coloured formazan, in cell work by metabolically active cells.
In another data set the test system is HepG2. In words: Anticancer activity against human HepG2 cells assessed as cell viability incubated for 72 hrs using self assembled nanoparticle as source of compound by CCK-8 assay. The format is functional, cell-based. To be noted: HepG2, 72 h.
Data set [2] is described as follows: Binding affinity to STAT2 (unknown origin) assessed as dissociation constant by SPR assay. More on the design: species or system Homo sapiens. On the technique in general: Surface plasmon resonance follows binding to a sensor surface in real time, without labels.
Data set [3] can be described thus: Biodistribution in heart of nude mouse xenografted with A549 cells at 5 mg/kg, iv using chlorine e6 loaded self-assembled nanoparticle as source of compound incubated for 24 hrs by ex-vivo fluorescence based LC-MS/MS analysis. It counts as ADME, organism-based.
The test system of data set [4] is A549. In words: In vivo antitumor activity against human A549 cells xenografted in female BALB/c nu/nu mouse assessed as tumor volume at 5 mg/kg, iv administered every 3 days and measured on 18 day relative to control. It counts as functional. Particulars: time 3 day.
In data set [5] the test system is A549. In words: Induction of apoptosis in human A549 cells assessed as necrotic cells at 2 uM incubated for 24 hrs by Annexin V-FITC/PI staining based flow cytometric analysis (reference value: 1.20%). The format is functional. (In flow cytometry, cells or beads pass a laser one at a time.)
A short description of data set [6]: Toxicity in female BALB/c nu/nu mouse xenografted with human A549 cells assessed as effect on heart at 2.5 mg/kg, iv by H and E staining based analysis. The format is organism-based. To be noted: in vivo.
The next data set addresses Histone deacetylase 8 (Homo sapiens, UniProt Q9BY41). Nature of the data set: Inhibition of recombinant human HDAC8 using Boc-Lys (trifluroacetyl)-AMC as substrate preincubated with compound for 1 hr followed by substrate addition and measured after 30 mins by microplate reader assay.
For data set [7], the system named is HeLa. Nature of the data set: cells. The format is functional, cell-based. Particulars: Homo sapiens, 72 h.
Description: Antiproliferative activity against human Hela cells assessed as inhibition of cell proliferation incubated for 72 hrs by CCK-8 assay
For data set [8], the target named is Polyamine deacetylase HDAC10 (Homo sapiens, UniProt Q969S8). Nature of the data set: Inhibition of recombinant human HDAC10 using Boc-Lys (trifluroacetyl)-AMC as substrate preincubated with compound for 1 hr followed by substrate addition and measured after 30 mins by microplate reader assay.
Polyamine deacetylase HDAC10, sequence (Q969S8 whole entry): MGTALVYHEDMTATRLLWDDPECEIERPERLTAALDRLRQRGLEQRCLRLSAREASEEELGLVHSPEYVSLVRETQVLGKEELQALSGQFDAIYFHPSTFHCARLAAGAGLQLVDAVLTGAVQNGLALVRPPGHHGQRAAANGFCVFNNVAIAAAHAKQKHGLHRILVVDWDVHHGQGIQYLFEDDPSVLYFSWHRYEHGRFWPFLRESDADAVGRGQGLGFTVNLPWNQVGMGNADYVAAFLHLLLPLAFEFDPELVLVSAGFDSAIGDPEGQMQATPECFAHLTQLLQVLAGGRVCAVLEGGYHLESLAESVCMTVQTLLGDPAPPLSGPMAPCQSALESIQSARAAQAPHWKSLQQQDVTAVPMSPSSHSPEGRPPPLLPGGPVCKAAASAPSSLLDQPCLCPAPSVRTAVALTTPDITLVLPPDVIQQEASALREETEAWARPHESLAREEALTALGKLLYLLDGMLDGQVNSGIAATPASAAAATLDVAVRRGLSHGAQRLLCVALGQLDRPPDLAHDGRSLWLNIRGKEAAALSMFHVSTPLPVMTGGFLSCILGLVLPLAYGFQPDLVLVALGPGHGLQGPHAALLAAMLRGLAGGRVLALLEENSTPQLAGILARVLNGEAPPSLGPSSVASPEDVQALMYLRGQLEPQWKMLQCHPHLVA
A short description of data set [9]: Toxicity in female BALB/c nu/nu mouse xenografted with human A549 cells assessed as effect on body weight at 2.5 mg/kg, iv and measured regularly. The format is organism-based. To be noted: in vivo.
A short description of data set [10]: Toxicity in female BALB/c nu/nu mouse xenografted with human A549 cells assessed as effect on heart at 5 mg/kg, iv by H and E staining based analysis. It counts as organism-based. To be noted: in vivo.
Data set [11] has as its system A549. In words: Induction of autophagy in human A549 cells transfected with mRFP-GFP-LC3 at 0.5 uM incubated for 24 hrs by confocal microscopic analysis. The format is functional, cell-based.
The test system of data set [12] is A549. In words: Induction of apoptosis in human A549 cells assessed as late apoptotic cells at 2 uM incubated for 24 hrs by Annexin V-FITC/PI staining based flow cytometric analysis (reference value: 2.18%). It counts as functional.
Data set [13] in a line: Toxicity in female BALB/c nu/nu mouse xenografted with human A549 cells assessed as effect on kidney at 5 mg/kg, iv by H and E staining based analysis. The format is organism-based. To be noted: in vivo.
The test system of data set [14] is A549. In words: In vivo antitumor activity against human A549 cells xenografted in female BALB/c nu/nu mouse assessed as decrease in STAT3 phosphorylation level at 5 mg/kg, iv administered every 3 days for 9 days by Western blotting analysis. It counts as functional, organism-based. To be noted: time 3.0 day.
Data set [15] can be described thus: Biodistribution in liver of nude mouse xenografted with A549 cells at 5 mg/kg, iv using chlorine e6 loaded self-assembled nanoparticle as source of compound incubated for 24 hrs by ex-vivo fluorescence based LC-MS/MS analysis. The format is ADME, organism-based.
For data set [16], the system named is A549. In words: Induction of apoptosis in human A549 cells assessed as necrotic cells at 4 uM incubated for 24 hrs by Annexin V-FITC/PI staining based flow cytometric analysis (reference value: 1.20%). It counts as functional.
The test system of data set [17] is A549. In words: Induction of apoptosis in human A549 cells assessed as decrease in BCL-2 protein level at 6 uM incubated for 12 hrs by Western blot analysis.
Data set [18] can be described thus: Biodistribution in kidney of nude mouse xenografted with A549 cells at 5 mg/kg, iv using chlorine e6 loaded self-assembled nanoparticle as source of compound incubated for 24 hrs by ex-vivo fluorescence based LC-MS/MS analysis. The format is ADME, organism-based.
Data set [19] deals with T1, Protein deacetylase HDAC6 (Homo sapiens, UniProt Q9UBN7).
T1 sequence (Q9UBN7 whole entry): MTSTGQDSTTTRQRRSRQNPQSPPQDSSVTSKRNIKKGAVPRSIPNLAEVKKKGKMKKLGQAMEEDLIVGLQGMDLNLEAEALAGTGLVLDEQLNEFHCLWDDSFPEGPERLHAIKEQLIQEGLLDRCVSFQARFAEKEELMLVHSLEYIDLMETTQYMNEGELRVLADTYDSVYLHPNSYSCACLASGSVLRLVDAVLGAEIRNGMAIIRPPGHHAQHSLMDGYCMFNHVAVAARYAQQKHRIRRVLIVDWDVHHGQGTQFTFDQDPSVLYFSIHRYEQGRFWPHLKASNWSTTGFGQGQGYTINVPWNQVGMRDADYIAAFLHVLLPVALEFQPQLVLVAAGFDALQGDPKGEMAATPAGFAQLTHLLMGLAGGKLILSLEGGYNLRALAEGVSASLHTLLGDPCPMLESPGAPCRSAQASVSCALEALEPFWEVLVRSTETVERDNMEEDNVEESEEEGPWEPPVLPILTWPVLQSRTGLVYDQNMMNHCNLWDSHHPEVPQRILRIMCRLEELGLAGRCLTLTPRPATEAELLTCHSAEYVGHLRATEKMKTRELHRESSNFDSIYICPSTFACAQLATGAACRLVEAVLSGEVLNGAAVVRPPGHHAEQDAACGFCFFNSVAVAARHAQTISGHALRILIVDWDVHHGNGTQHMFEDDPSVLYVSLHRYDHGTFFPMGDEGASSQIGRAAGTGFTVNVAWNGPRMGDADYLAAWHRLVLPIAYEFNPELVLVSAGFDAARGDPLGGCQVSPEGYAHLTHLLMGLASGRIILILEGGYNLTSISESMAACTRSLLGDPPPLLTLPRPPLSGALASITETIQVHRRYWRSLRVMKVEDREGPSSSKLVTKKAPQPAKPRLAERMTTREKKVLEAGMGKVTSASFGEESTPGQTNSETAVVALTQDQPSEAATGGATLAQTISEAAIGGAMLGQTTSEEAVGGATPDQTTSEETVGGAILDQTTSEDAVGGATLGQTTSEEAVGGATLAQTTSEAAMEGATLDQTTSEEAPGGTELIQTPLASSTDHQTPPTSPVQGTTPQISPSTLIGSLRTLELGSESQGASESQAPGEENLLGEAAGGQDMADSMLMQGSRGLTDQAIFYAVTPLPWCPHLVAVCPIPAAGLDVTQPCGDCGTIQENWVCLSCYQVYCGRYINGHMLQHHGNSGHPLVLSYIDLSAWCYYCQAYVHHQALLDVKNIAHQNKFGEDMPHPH
Nature of the data set: Inhibition of recombinant human HDAC6 using Boc-Lys (acetyl)-AMC as substrate preincubated with compound for 1 hr followed by substrate addition and measured after 30 mins by microplate reader assay.

Histone deacetylase 8, sequence (Q9BY41 whole entry): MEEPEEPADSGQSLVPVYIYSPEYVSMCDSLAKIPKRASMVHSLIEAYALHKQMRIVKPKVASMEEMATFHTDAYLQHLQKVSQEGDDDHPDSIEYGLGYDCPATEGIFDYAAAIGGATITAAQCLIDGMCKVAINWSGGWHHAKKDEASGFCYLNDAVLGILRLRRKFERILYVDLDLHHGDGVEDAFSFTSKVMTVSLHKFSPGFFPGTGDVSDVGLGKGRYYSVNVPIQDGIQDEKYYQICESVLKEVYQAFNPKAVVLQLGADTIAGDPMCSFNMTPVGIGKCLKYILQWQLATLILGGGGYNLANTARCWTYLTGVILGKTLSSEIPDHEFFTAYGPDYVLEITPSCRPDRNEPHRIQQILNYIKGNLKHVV

Usually IC50 stands for the concentration that inhibits the measured activity by half. For the compound `C=C1C(=O)O[C@@H]2C[C@@]3(C)CC[C@@H](OC(=O)[C@H](C)NC(=O)c4ccc(/C=C/C(=O)NO)cc4)C(=C)[C@@H]3C[C@H]12`, the IC50 in the data set on HeLa [1] amounted to 72 nM; in the data set on HepG2, 170 nM; on Histone deacetylase 8, 1420 nM; in the data set on HeLa [7], 130 nM; in data set [8], 57.4 nM; in data set [19], 7.69 nM. The Kd result in [2] was “Not Active”. Further, the Drug uptake entry in data set [3], in data set [15] and in [18] was “Active” throughout. Moreover, the Activity was 47.3% in the data set on A549 [4]; 1.59% in the data set with A549 [5]; “Non-Toxic” in [6]; “Non-Toxic” in data set [9]; “Non-Toxic” in data set [10]; 11.86% in the data set with A549 [12]. For the same compound, the Activity result is listed as “Non-Toxic” in data set [13] and 2.99% in the data set on A549 [16]. The outcome in the data set on A549 [11], in the data set on A549 [14] and with A549 [17] was Active.
